Where two headings read alike, the source gives them in different places.
Tests used:
[1] = Solubility of 74W86 in common solvents; assay type: physicochemical; conditions: most common solvents
[2] = test system: anti-lamotrigine antibody; assay: Cross-reactivity of polyclonal antibody with lamotrigine metabolites spiked into human serum; assay type: binding; conditions: metabolite at 500 μg/mL spiked into human serum; polyclonal antisera
Description: A polyclonal antisera is obtained and an assay is performed in order to determine the amount of cross-reactivity of the polyclonal antibody with lamotrigine and lamotrigine metabolites. A known amount of lamotrigine is used to react with an anti-lamotrigine antibody prepared in accordance with the present invention. The known concentration of lamotrigine is used to calculate the amount of cross-reactivity between the antibody preparation and the metabolites as follows: N-methyl (29); N-oxide (30); and N-2 gluronide (31). The percent of cross-reactivity equals 100 times the observed concentration of lamotrigine in μg/mL, which is then divided by the concentration of added metabolites in μg/mL. No cross-reactivity is observed in specimens containing those metabolites. High concentrations of these compounds are spiked into human serum and tested as samples. The metabolites are assayed and compared to control serum (no lamotrigine). Cross reactivity is calculated using the following equation: [formula]

[3] = cited from earlier work
[4] = responders (>50% seizure reduction)

Which solubility [1] does the source give for `Nc1nnc(-c2cccc(Cl)c2Cl)c(NC(=O)CCC(=O)O)n1` [74W86] here?
Its solubility is “poor solubility in most common solvents”.

For `C[n+]1nc(-c2cccc(Cl)c2Cl)c(N)nc1N` [N-2 methyl], which cross-reactivity [2] is on record?
The cross-reactivity was “do not have any cross-reactivity”.

With `Nc1nc(N)[n+]([O-])nc1-c1cccc(Cl)c1Cl` [N-2 oxide] as the compound, how does the cross-reactivity [2] read?
The cross-reactivity was under 3%.

With `Nc1nnc(-c2cccc(Cl)c2Cl)c(N)n1` [lamotrigine, 3,5-diamino-6-(2,3-dichlorophenyl)-1,2,4-triazine] as the compound, how does the “lamotrigine concentration, range” value ([3]; patients with side effects) read?
Its value is 31 to 60 µmol/L.

What about the median lamotrigine concentration ([3]; patients with side effects) of the same compound?
Its median lamotrigine concentration is 62 µmol/L.

And the “lamotrigine concentration, range” value [3, 4]?
Its value is 8 to 60 µmol/L.

What about the median lamotrigine concentration [3, 4] of the same compound?
Its median lamotrigine concentration is 31 µmol/L.

Source: patent US20060115865A1, “Lamotrigine analogs” (priority 2004, published 2006)
